Values after ≈ are worked out from the molar mass of the structure shown. Where a SMILES comes first, the peptide text is derived from it. [ ]: non-standard residue; d: D form. N(tridecyl)Gly = CCCCCCCCCCCCCNCC(=O)O; Gly(N-2-aminoethyl) = NCCNCC(=O)O; Gly(N-cHex) = O=C(O)CNC1CCCCC1; Nlys = NCCCCNCC(=O)O
How the values were obtained:
A. baumannii = format: cell-based, Acinetobacter baumannii; conditions: 24 h
Description: The minimum inhibitory concentration (MIC) of peptoids against the ESKAPE bacteria (Enterococcus faecium ATCC 6569; Staphylococcus aureus ATCC 29213; Klebsiella pneumoniae ATCC 13883; Acinetobacter 55aumannii ATCC 19606; Pseudomonas aeruginosa ATCC 25619; Enterococcus faecalis ATCC 29212; and Escherichia coli ATCC 25922) was determined following CLSI guidelines (CLSI. Methods for Dilution Antimicrobial Susceptibility Tests for Bacteria That Grow Aerobically, 11th Edition. (Clinical and Laboratory Standards Institute, 2018). The MIC against Mycobacterium smegmatis was also determined following CLSI guidelines (Woods et al., Susceptibility Testing of Mycobacteria, Nocardiae, and Other Aerobic Actinomycetes, 2nd edition. (2011)). Colonies picked from streaked tryptic soy agar plates were added to tryptic soy broth (TSB) to achieve a turbidity of OD600=0.08-0.15. Inoculant was diluted 1:200 into cation adjust Mueller Hinton Broth (CAVHB) and 90 μL was plated into each well of a 96 well black-wall plate. […] Following incubation for the ESKAPE bacteria, PrestoBlue (10 μL) was added to each well and incubated at 37° C. for one hour before measuring fluorescence on a SpectraMax M5 plate reader (Ex. 555 nm; Em. 585 nm). Following incubation for M. smegmatis, wells were scored following CLSI guidelines to determine MIC. […]

[1] = test system: Enterococcus faecalis ATCC 29212; format: cell-based; conditions: ATCC 29212, 24 h
Description: (§1) The minimum inhibitory concentration (MIC) of peptoids against the ESKAPE bacteria (Enterococcus faecium ATCC 6569; Staphylococcus aureus ATCC 29213; Klebsiella pneumoniae ATCC 13883; Acinetobacter 55aumannii ATCC 19606; Pseudomonas aeruginosa ATCC 25619; Enterococcus faecalis ATCC 29212; and Escherichia coli ATCC 25922) was determined following CLSI guidelines (CLSI. Methods for Dilution Antimicrobial Susceptibility Tests for Bacteria That Grow Aerobically, 11th Edition. (Clinical and Laboratory Standards Institute, 2018). The MIC against Mycobacterium smegmatis was also determined following CLSI guidelines (Woods et al., Susceptibility Testing of Mycobacteria, Nocardiae, and Other Aerobic Actinomycetes, 2nd edition. (2011)). Colonies picked from streaked tryptic soy agar plates were added to tryptic soy broth (TSB) to achieve a turbidity of OD600=0.08-0.15. Inoculant was diluted 1:200 into cation adjust Mueller Hinton Broth (CAVHB) and 90 μL was plated into each well of a 96 well black-wall plate. 2-fold serial dilutions of 10× peptoid (10 μL) were added to each well in triplicate and incubated at 37° C. for 24 hours for the ESKAPE bacteria and 72 hours for M. smegmatis. Tetracycline (20 μg/mL) was used as a positive control with DI water was used as a vehicle control. Following incubation for the ESKAPE bacteria, PrestoBlue (10 μL) was added to each well and incubated at 37° C. for one hour before measuring fluorescence on a SpectraMax M5 plate reader (Ex. 555 nm; Em. 585 nm). Following incubation for M. smegmatis, wells were scored following CLSI guidelines to determine MIC. This assay was repeated three times on separate days.

[2] = test system: Enterococcus faecium ATCC 6569; format: cell-based; conditions: ATCC 6569, 24 h
Description: as §1

[3] = test system: Escherichia coli ATCC 25922; format: cell-based; conditions: ATCC 25922, 24 h
Description: as §1

[4] = test system: Staphylococcus aureus ATCC 29213; format: cell-based; conditions: ATCC 29213, 24 h
Description: as §1

Mycobacterium smegmatis = format: cell-based; conditions: 72 h
Description: as §1

[5] = test system: Pseudomonas aeruginosa ATCC 25619; format: cell-based; conditions: ATCC 25619, 24 h
Description: as §1

[6] = test system: Klebsiella pneumoniae ATCC 13883; format: cell-based; conditions: ATCC 13883, 24 h
Description: as §1

## CCCCCCCCCCCCCNCC(=O)N(CC(=O)N(CCCCN)CC(=O)N(CCN)CC(=O)N(CC(N)=O)C1CCCCC1)C1CCCCC1 [RMG8-8, Ntri-Ncha-Nlys-Nae-Ncha] (H-[N(tridecyl)Gly][Gly(N-cHex)][Nlys][Gly(N-2-aminoethyl)][Gly(N-cHex)]-NH2)
A. baumannii
  MIC A. baumannii: 25 µg/mL (≈ 32.8 µM)
[1]
  MIC E. faecalis: 6.25 µg/mL (≈ 8.19 µM)
[2]
  MIC E. faecium: 6.25 µg/mL (≈ 8.19 µM)
[3]
  MIC E. coli: 12.5 µg/mL (≈ 16.4 µM)
[4]
  MIC S. aureus: 6.25 µg/mL (≈ 8.19 µM)
Mycobacterium smegmatis
  MIC M. smegmatis: 3.13 to 6.25 µg/mL
[5]
  MIC P. aeruginosa: 100 µg/mL (≈ 131 µM)
[6]
  MIC K. pneumoniae: 100 µg/mL (≈ 131 µM)

From patent US20240352066A1, “ANTIMICROBIAL COMPOUNDS AND THE METHOD OF USE” (priority 2021, published 2024)
